This note sets out measurements from ChEMBL document CHEMBL4616619, “Acetylene Group, Friend or Foe in Medicinal Chemistry” (J Med Chem, 2020).

≈ marks a conversion by molar mass, not a printed value. Bounds are passed on as bounds.

The nature of data set [1]: Half life in human plasma at 25 uM after 1 to 3 hrs by reversed-phase HPLC. It counts as ADME, cell-free.
The nature of data set [2]: Thermodynamic aqueous solubility of compound in pH 7 buffer at 1 to 2 mg after 4 hrs by HPLC analysis. It counts as physicochemical. The conditions noted are these: read-out: Therm_solubility.
Another data set has as its system rhinovirus B14. The data set is described as follows: Antiviral activity against Human rhinovirus 14 infected in HeLa […] cells after 2 days by XTT/PMS assay. It counts as functional, organism-based. The conditions noted are these: Rhinovirus B, 48 h. On the technique in general: Formazan colour is commonly taken as a measure of viable cells.
Data set [3] can be described thus: Stability in human liver microsomes assessed as compound metabolized at 25 uM after 30 mins in presence of NADPH by HPLC analysis. The conditions noted are these: read-out: Drug metabolism. In kind it is ADME, Microsome. A general note: Liver microsomes are vesicles of endoplasmic reticulum, rich in cytochrome P450 enzymes.
The test system of the next data set is Human rhinovirus sp. The data set is described as follows: Antiviral activity against Human rhinovirus. It counts as functional, organism-based.
Data set [4] concerns Human immunodeficiency virus 1. The data set is described as follows: Antiviral activity against HIV-1 3B infected in human MT4 cells incubated for 5 days by MTT assay. It counts as functional, organism-based. Particulars: Human immunodeficiency virus 1, 3B, MT4, 120 h.
Data set [5] can be described thus: Cytotoxicity against human MT4 cells. It counts as cell-based.
Data set [6] is described as follows: Selectivity ratio of CC50 for human MT4 cells to IC50 for HIV-1 3B. The conditions noted are these: read-out: Ratio CC50/IC50. In kind it is toxicity.
The target of data set [7] is T1, Dihydropyrimidine dehydrogenase [NADP(+)] (Bos taurus) (UniProt Q28007).
T1 sequence (whole entry): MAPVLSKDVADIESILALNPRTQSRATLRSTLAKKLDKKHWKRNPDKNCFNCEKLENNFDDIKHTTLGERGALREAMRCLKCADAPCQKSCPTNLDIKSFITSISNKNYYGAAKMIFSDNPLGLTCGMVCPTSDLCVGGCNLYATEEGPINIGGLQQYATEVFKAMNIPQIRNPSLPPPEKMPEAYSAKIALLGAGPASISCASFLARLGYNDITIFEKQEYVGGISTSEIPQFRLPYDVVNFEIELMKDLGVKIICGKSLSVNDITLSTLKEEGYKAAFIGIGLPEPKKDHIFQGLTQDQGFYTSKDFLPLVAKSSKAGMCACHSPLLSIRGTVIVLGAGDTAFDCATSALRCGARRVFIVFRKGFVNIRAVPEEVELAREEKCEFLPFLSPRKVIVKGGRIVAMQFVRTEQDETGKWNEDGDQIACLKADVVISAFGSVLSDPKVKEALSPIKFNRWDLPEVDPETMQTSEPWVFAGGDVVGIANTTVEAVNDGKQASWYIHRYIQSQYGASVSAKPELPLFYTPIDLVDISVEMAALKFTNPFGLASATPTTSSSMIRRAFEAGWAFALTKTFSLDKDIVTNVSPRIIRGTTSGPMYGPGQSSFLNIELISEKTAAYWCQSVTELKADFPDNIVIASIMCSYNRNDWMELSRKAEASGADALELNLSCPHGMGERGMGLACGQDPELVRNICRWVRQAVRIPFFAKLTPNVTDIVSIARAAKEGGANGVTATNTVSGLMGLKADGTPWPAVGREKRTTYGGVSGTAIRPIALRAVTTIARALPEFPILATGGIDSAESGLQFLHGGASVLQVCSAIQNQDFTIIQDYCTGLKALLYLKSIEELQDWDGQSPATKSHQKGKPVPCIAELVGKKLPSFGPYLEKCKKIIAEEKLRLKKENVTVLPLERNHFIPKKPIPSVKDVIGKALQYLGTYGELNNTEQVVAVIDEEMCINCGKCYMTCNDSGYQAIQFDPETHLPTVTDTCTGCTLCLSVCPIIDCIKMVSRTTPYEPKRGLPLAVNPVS
Briefly: Inactivation of bovine liver DHPDHase assessed as Kinact in presence of NADPH.

The target of data set [8] is T2, Amine oxidase [flavin-containing] A (Homo sapiens, UniProt P21397).
T2 sequence (P21397 whole entry): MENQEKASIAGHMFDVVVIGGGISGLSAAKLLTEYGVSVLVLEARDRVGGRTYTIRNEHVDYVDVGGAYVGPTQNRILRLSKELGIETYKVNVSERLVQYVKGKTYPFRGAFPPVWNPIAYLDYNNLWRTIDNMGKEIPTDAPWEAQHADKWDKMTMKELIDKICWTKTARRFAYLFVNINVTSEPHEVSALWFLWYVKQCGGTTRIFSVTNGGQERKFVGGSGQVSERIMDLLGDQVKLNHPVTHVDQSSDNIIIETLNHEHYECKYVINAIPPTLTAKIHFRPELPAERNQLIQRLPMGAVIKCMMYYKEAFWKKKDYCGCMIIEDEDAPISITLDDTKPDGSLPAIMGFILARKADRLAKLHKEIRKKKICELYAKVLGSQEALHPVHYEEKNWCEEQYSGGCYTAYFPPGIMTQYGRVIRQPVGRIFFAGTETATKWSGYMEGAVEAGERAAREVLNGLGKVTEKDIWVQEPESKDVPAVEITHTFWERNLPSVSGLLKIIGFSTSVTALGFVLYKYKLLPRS
Briefly: Inhibition of human MAO-A using Tyramine hydrochloride as substrate preincubated for 30 mins followed by substrate addition and measured for 1 hr by fluorometric method.

For the next data set, the target named is Cholinesterase (Homo sapiens, UniProt P06276). The data set is described as follows: Inhibition of butyrylcholinesterase (unknown origin).
The target of another data set is Acetylcholinesterase (Homo sapiens, UniProt P22303). Briefly: Inhibition of acetylcholinesterase (unknown origin).
A short description of data set [9]: Plasma clearance in iv dosed cynomolgus monkey. It counts as ADME, organism-based, Macaca fascicularis.
Data set [10] can be described thus: Half life in cynomolgus monkey. It counts as ADME, Macaca fascicularis. The conditions noted are these: in vivo.
Data set [11] is described as follows: Substrate activity at UDP-glucuronosyltransferase in cynomolgus monkey microsomes assessed as Vmax. It counts as ADME, Macaca fascicularis.
Data set [12] is described as follows: Cmax in rhesus monkey at 8 mg/kg, po. In kind it is ADME, organism-based, Macaca mulatta. The arrangement: dose 8 mg/kg, route oral. Particulars: in vivo.
The subject of another data set is Poliovirus 1. The data set is described as follows: Antiviral activity against Poliovirus type 1 Mahoney infected in African green monkey BSC1 cells by crystal violet staining based plaque reduction assay. It counts as functional, organism-based. The conditions noted are these: Enterovirus C, BSC-1.
Data set [13] deals with T2, Amine oxidase [flavin-containing] A. Briefly: Inhibition of human MAO-A.
Data set [14] in a line: Cytotoxicity against human MT2 cells. In kind it is cell-based.
Data set [15] relates to Human immunodeficiency virus 1. Briefly: Antiviral activity against HIV1 3B infected in human MT2 cells. It counts as functional, organism-based. The conditions noted are these: Human immunodeficiency virus 1, 3B.
Data set [16] deals with T3, Thymidine kinase, cytosolic (Homo sapiens, UniProt P04183).
T3 sequence (P04183 whole entry): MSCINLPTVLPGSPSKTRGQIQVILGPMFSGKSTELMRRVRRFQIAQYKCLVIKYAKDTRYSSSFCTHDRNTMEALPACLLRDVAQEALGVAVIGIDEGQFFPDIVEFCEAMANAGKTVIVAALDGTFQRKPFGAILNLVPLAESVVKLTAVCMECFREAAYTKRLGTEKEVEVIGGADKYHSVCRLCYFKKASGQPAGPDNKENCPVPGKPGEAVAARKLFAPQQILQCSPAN
The data set is described as follows: (§1) Substrate activity at human thymidine kinase 1 assessed as Km incubated for 24 hrs. It counts as ADME.

A short description of data set [17]: Inactivation of CYP2B1 (unknown origin). The arrangement: species or system Homo sapiens.
The species named for a further data set is Homo sapiens. The data set is described as follows: Inactivation of CYP2B1 (unknown origin) assessed as Kinact.
Substrate in data set [18]: C#C[C@@]1(CO)C=C[C@H](n2cc(C)c(=O)[nH]c2=O)O1
The description is as §1. It counts as ADME.

Acetylcholinesterase, sequence (P22303 whole entry): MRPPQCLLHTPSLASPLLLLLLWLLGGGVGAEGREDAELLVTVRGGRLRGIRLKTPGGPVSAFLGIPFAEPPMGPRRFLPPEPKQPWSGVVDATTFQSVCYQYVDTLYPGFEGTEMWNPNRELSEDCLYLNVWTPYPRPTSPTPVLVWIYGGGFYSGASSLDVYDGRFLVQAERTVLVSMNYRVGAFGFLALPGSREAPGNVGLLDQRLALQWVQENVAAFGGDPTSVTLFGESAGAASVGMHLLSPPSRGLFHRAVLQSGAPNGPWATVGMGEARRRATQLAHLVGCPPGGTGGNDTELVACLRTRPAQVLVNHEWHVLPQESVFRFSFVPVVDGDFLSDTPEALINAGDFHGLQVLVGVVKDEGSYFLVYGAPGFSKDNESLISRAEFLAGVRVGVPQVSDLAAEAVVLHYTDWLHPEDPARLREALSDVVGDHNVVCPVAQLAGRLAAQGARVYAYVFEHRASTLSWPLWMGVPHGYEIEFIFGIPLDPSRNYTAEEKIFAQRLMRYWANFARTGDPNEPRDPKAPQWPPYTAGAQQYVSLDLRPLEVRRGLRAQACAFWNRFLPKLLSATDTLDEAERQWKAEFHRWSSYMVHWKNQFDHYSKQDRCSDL
Cholinesterase, sequence (P06276 whole entry): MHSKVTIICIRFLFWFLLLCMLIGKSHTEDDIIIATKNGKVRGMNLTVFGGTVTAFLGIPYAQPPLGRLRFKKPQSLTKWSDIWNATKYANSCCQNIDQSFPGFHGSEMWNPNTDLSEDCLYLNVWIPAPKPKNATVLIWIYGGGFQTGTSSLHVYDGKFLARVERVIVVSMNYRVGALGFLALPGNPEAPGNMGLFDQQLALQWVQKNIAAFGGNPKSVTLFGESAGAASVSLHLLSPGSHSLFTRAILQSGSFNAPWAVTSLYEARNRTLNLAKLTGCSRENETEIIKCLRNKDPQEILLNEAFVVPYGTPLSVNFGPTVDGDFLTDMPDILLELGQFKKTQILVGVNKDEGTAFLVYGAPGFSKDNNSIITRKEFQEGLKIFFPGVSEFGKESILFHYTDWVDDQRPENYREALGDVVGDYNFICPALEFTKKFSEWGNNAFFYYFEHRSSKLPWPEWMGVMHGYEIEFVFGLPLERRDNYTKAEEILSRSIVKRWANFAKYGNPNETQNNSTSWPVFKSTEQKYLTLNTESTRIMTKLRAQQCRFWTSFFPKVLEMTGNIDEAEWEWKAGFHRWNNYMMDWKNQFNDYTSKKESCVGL

In turn, `CCOC(=O)/C=C/[C@H](CC1CCNC1=O)NC(=O)[C@H](Cc1ccc(F)c(F)c1)n1cccc(NC(=O)c2cc(C)on2)c1=O` (stereo partly specified) gave a half-life at 25 µM in data set [1] of 1.4 h. In addition, the solubility thermodynamic at 4 h in [2] stood at 25 µg/mL (≈ 40.9 µM). This molecule gave an EC50 with rhinovirus B14 of 11 nM. The metabolised at 0.5 h, 25 µM in [3] was 81%.
Molecule `C#CC[C@@H](C(=O)N[C@H](/C=C/C(=O)OCC)CC1CCNC1=O)n1cccc(NC(=O)c2cc(C)on2)c1=O` (stereo partly specified) showed a half-life at 25 µM in data set [1] of 6.6 h. Moreover, the solubility thermodynamic at 4 h in data set [2] was 377 µg/mL (≈ 720 µM). The metabolised at 0.5 h, 25 µM in data set [3] was 40%. The EC50 with Human rhinovirus sp. was determined as 58 nM.
Take `C#C[C@]1(CO)O[C@@H](n2cnc3c(N)nc(F)nc32)C[C@@H]1O`: inhibition in data set [4] was half-maximal at 0.3 nM (IC50). In addition, the CC50 in [5] is 19200 nM. The selectivity ratio in [6] was above 60000.
Take `CC#Cn1ccc(=O)[nH]c1=O`: the Kinact in [7] was found to be 0.46 min⁻¹.
Take `C#CCN(C)c1nc(NCCCCC2CCN(Cc3ccccc3)CC2)c(C#N)cc1C#N`: the IC50 in data set [8] is above 100 nM.
Regarding `Oc1ncc(/C=C/Br)c(O)n1`, the Kinact in data set [7] turned out to be 0.6 min⁻¹.
The same measure, in the same setting: next, `O=c1[nH]cc(Br)c(=O)[nH]1`: 0.42 min⁻¹.
For `C#CCNCc1cc2cc(OCc3ccccc3)ccc2[nH]1`, the IC50 on Cholinesterase and against Acetylcholinesterase was above 100000 nM in each case.
`CC(/C=C/c1cccc(Oc2ccc(F)cc2)c1)N(O)C(N)=O` (stereo unspecified) gave a clearance in data set [9] of 2 mL/min/kg. This molecule gave a half-life in data set [10] of 4.7 h. The Vmax in data set [11] is 0.19 nmol/min/mg.
For `O=c1[nH]cc(C(F)(F)F)c(=O)[nH]1`, the Kinact in data set [7] was determined as 0.23 min⁻¹.
In data set [12], `C#C/C=C(\c1ccccc1)c1ccc2nc(N)n(S(=O)(=O)C(C)C)c2c1` showed a Cmax of 70 to 300 ng/mL. The IC50 in the data set with Poliovirus 1 came out at 0.02 µg/mL (≈ 0.0547 µM).
Molecule `C#CCN[C@@H]1CCc2ccc(OC(=O)N(C)CC)cc21` [LADOSTIGIL] came in with an IC50 in [13] above 100000 nM.
As for `Cc1cn([C@H]2C=C[C@@](C#N)(CO)O2)c(=O)[nH]c1=O`, the CC50 in data set [14] is above 100000 nM. Besides, in [15], the EC50 was 7000 nM.
`Cc1cn([C@H]2C=C[C@@H](CO)O2)c(=O)[nH]c1=O` [STAVUDINE] showed a CC50 in data set [14] of 98000 nM. The same molecule came in with an EC50 in data set [15] of 1300 nM. Also, the Km in [16] amounted to 133 µM.
Regarding `C/C=C(\c1ccccc1)c1ccc2nc(N)n(S(=O)(=O)C(C)C)c2c1`, the Cmax in data set [12] fell in the range of 14 to 140 ng/mL. In the data set with Poliovirus 1, this molecule returned an IC50 of 0.06 µg/mL (≈ 0.169 µM).
Regarding `CC(C#Cc1ccc(Cc2ccc(F)cc2)s1)N(O)C(N)=O` (stereo unspecified), the half-life in [10] was 14.5 h.
In [17], `C#CCN(C)[C@H](C)Cc1ccccc1` [SELEGILINE] displayed a Ki of 1000 nM. For the same molecule, the Kinact in the data set filed under Homo sapiens stood at 0.23 min⁻¹.
In the case of `[N-]=[N+]=C1C=NC(=O)NC1=O`, the Kinact in data set [7] was found to be 1.68 min⁻¹.
`C#C[C@@]1(CO)C=C[C@H](n2cc(C)c(=O)[nH]c2=O)O1` [CENSAVUDINE] came in with a CC50 in [14] above 256000 nM. In [15], the response was half-maximal at 250 nM (EC50).
As to `C#Cc1c[nH]c(=O)[nH]c1=O`, the Kinact in [7] was 5.64 min⁻¹.
On the same count and under the same terms, next, `N#Cc1cnc(O)nc1O`: 0.78 min⁻¹.
In data set [9], `CC(C#Cc1cccc(Oc2ccc(F)cc2)c1)N(O)C(N)=O` (stereo unspecified) [FENLEUTON] returned a clearance of 1.3 mL/min/kg. For the same molecule, in data set [10], the half-life is 5.5 h. Further, the Vmax in data set [11] was determined as 0.05 nmol/min/mg.
In data set [9], `CC(c1cc2ccccc2s1)N(O)C(N)=O` (stereo unspecified) [ZILEUTON] registered a clearance of 14 mL/min/kg. The half-life in data set [10] is 0.4 h. The Vmax in data set [11] is 1.2 nmol/min/mg.

B1: Thymidine kinase, cytosolic (Homo sapiens) (protein)
chain: T3 sequence (P04183 whole entry)
On to B1, for which the Km in data set [18] was found to be 53 µM.

As usually defined, the half-life is how long it takes for the measured level to halve. By EC50 is commonly meant the midpoint of the concentration-response curve. What is called IC50 is the midpoint of a concentration-inhibition curve. As a reminder, the CC50 is the concentration that lowers cell viability or growth by half. For orientation: clearance means a measure of how efficiently the substance is removed, as volume per time. What is called Vmax is the rate approached at saturating substrate. A word on the Cmax: it is the highest concentration seen after dosing. One may read the Km as the concentration of substrate that gives half-maximal velocity.
